Test results: US20260234146A1, “Use of Hypoxia-Inducible Factor-Prolyl Hydroxylase Inhibitor (HIF-PHI) in Rare Anemia” (Kind Pharmaceutical, priority 2023, published 2026)

Legend:
Townes SCD model mouse = experiment: Effect on SCD anemia mice (RBC, Hb, HCT); assay type: in vivo
Description: Throughout the experimental stage, animals were housed in cages in an animal room with 24-hour continuous central air conditioning, temperature set at 20-26° C., relative air humidity set at 40-70%, and a 12-hour light/dark cycle. All animals had free access to food and sterilized drinking water. The animal strain was B6·Cg-Hbb^tm2(HBG1,HBB)Tow/Hbat^ml(HBA)Tow/ShmtJ mice, a Townes SCD model mouse where mouse endogenous hemoglobin is replaced by knocked-in human hemoglobin. Two weeks after birth, mice were ear-punched for identification, and the ear tissue was collected for PCR analysis to determine its genotype. Mice confirmed as B6·Cg-Hbb^tm2(HBG1,HBB)Tow/Hbat^ml(HBA)Tow/ShmtJ were grouped. […] Blood sampling was performed every other week. Mice showing symptoms of anemia were selected for dosing. Animals were randomly divided into groups, 6 animals per group: Vehicle control group (0.1 M meglumine aqueous solution; oral gavage; volume: 6.67 mL/kg), Comp-1 group (30 mpk; oral gavage; volume: 6.67 mL/kg), and EPO group (50 U/30 g body weight; SC injection; MyBioSource, cat. #: MBS650094, erythropoietin alpha). Dosing was administered three times a week (TIW) for 4 consecutive weeks. On days 14 and 28 of dosing, 70 μL of blood was collected from orbit. Collected blood samples were placed in heparin-anticoagulant tubes. 15 μL of the blood sample from the anticoagulant tube was aspirated and added to an Element HT5 Veterinary Hematology Analyzer. RBC, Hb, and HCT in the blood were measured according to the instrument's operating instructions. Data analysis was performed using GraphPad Prism 9.0. […]

MDS model mice = experiment: Effect on MDS model mice (RBC, Hb, HCT); assay type: in vivo, C57 mice; settings: 50 U/30 g
[1] = 30 mpk oral gavage TIW group, baseline, average of six mice
[2] = 30 mpk oral gavage TIW, end of the four-week experiment, average of five mice
[3] = 50 U/30 g SC TIW, After 2 weeks of dosing Week 2
[4] = 50 U/30 g SC TIW, After 4 weeks of dosing Week 4
[5] = 50 U/30 g group, Before dosing Week 0

Molecule | HCT (Townes SCD model mouse; [1]) | Hb (Townes SCD model mouse; [1]) | RBC (Townes SCD model mouse; [1]) | HCT (Townes SCD model mouse; [2]) | Hb (Townes SCD model mouse; [2]) | RBC (Townes SCD model mouse; [2]) | Mortality (Townes SCD model mouse; 30 mpk, oral gavage, TIW, after two weeks of dosing) | Improvement of RBC, Hb, or HCT values (MDS model mice) | Arithmetic mean of HCT hematocrit (Townes SCD model mouse; [3]) | Arithmetic mean of HGB hemoglobin content (Townes SCD model mouse; [3]) | Arithmetic mean of RBC red blood cell count (Townes SCD model mouse; [3]) | Arithmetic mean of HCT hematocrit (Townes SCD model mouse; [4]) | Arithmetic mean of HGB hemoglobin content (Townes SCD model mouse; [4]) | Arithmetic mean of RBC red blood cell count (Townes SCD model mouse; [4]) | Arithmetic mean of HCT hematocrit (Townes SCD model mouse; [5]) | Arithmetic mean of HGB hemoglobin content (Townes SCD model mouse; [5]) | Arithmetic mean of RBC red blood cell count (Townes SCD model mouse; [5]) | Therapeutic effect in the SCD mouse model (Townes SCD model mouse; 50 U/30 g, SC injection, TIW, 4 weeks)
O=C(O)CNC(=O)C1C(=O)N(C2CCCCC2)C(=O)N(C2CCCCC2)C1=O [Daprodustat, reference compound] | 31.8% | 9.1 g/dL | 6.14 M/μL | 35.9% | 10.9 g/dL | 7.54 M/μL | One mouse in the Daprodustat group including six mice in total died |  |  |  |  |  |  |  |  |  |  | 
EPO: EPO positive control; MyBioSource, cat. #: MBS650094, erythropoietin alpha |  |  |  |  |  |  |  | Neither Roxadustat nor EPO improved RBC, Hb, or HCT values | 25.02% | 7.52 g/dL | 5.80 M/μL | 23.25% | 6.87 g/dL | 5.43 M/μL | 27.00% | 8.37 g/dL | 6.25 M/μL | no therapeutic effect in the SCD mouse model
